This assay deals with test plant species. In words: Post-emergent herbicidal activity test (greenhouse, foliar spray, visual growth reduction). The note with it: post-emergence, 336 h, 140 g ai/ha, 14 days after application. In kind it is in vivo. The method in brief: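 Seedlings were raised 7-21 d in a greenhouse under a 15 h photoperiod until the first or second true leaf. Each compound, dissolved in acetone:DMSO 97:3 and diluted into a surfactant-containing spray mixture, was then applied at 187 L/ha. Plants were subirrigated, and growth reduction was scored visually at 14 d.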

Where [1] appears, read: ALOMY: blackgrass (Alopecurus myosuroides), read-out: Visual Growth Reduction (%) 14 Days After Application, ALOMY.
Where [2] appears, read: AMARE: redroot pigweed (Amaranthus retroflexus), read-out: Visual Growth Reduction (%) 14 Days After Application, AMARE.
Setting [3] is: AVEFA: wild oat (Avena fatua), read-out: Visual Growth Reduction (%) 14 Days After Application, AVEFA.
Setting [4] is: CHEAL: lambsquarters (Chenopodium album), read-out: Visual Growth Reduction (%) 14 Days After Application, CHEAL.
[5] abbreviates: CIRAR: canada thistle (Cirsium arvense), read-out: Visual Growth Reduction (%) 14 Days After Application, CIRAR.
[6] abbreviates: CYPES: yellow nutsedge (Cyperus esculentus), read-out: Visual Growth Reduction (%) 14 Days After Application, CYPES.
The mark [7] stands for this setting: DIGSA: crabgrass (Digitaria sanguinalis), read-out: Visual Growth Reduction (%) 14 Days After Application, DIGSA.
[8] abbreviates: ECHCG: barnyardgrass (Echinochloa crus-galli), read-out: Visual Growth Reduction (%) 14 Days After Application, ECHCG.
The mark [9] stands for this setting: IPOHE: ivy-leaf morning glory (Ipomoea hederacea), read-out: Visual Growth Reduction (%) 14 Days After Application, IPOHE.
Setting [10] is: KCHSC: kochia (Bassia scoparia), read-out: Visual Growth Reduction (%) 14 Days After Application, KCHSC.
Setting [11] is: ORYSA: rice (Oryza sativa), read-out: Visual Growth Reduction (%) 14 Days After Application, ORYSA.
Setting [12] is: SETFA: giant foxtail (Setaria faberi), read-out: Visual Growth Reduction (%) 14 Days After Application, SETFA.
Where [13] appears, read: SORVU: grain sorghum (Sorghum vulgare), read-out: Visual Growth Reduction (%) 14 Days After Application, SORVU.
[14] abbreviates: TRZAS: wheat, spring (Triticum aestivum), read-out: Visual Growth Reduction (%) 14 Days After Application, TRZAS.
[15] abbreviates: STEME: common chickweed (Stellaria media), read-out: Visual Growth Reduction (%) 14 Days After Application, STEME.

Read-outs that look alike come from different tables or passages of the source.

As to `COC(=O)c1nc(-c2ccc(C(F)(F)F)cc2Cl)cc(Cl)c1Cl` [F108, methyl 3,4-dichloro-6-(2-chloro-4-(trifluoromethyl)phenyl)picolinate], the pest or weed control at 140 g/ha lay within 0 to 29% under setting [1]; 0 to 29% under setting [2]; 0 to 29% under setting [3]; 0 to 29% under setting [4]; 0 to 29% under setting [5]; 0 to 29% under setting [6]. Further, the pest or weed control at 140 g/ha lay within 0 to 29% under setting [7]; 0 to 29% under setting [8]; 30 to 44% under setting [9]; 0 to 29% under setting [10]; 0 to 29% under setting [11]; 0 to 29% under setting [12]. Moreover, the pest or weed control at 140 g/ha runs as follows: under setting [13], 0 to 29%; under setting [14], 0 to 29%.
Turning to `COC(=O)c1nc(-c2ccc(C(F)(F)F)c(F)c2F)ccc1Cl` [F110, Methyl 3-chloro-6-(2,3-difluoro-4-(trifluoromethyl)phenyl)picolinate], the pest or weed control at 140 g/ha lay in the range of 0 to 29% under setting [1]; 85 to 94% under setting [2]; 0 to 29% under setting [3]; 75 to 84% under setting [4]; 85 to 94% under setting [5]; 0 to 29% under setting [6]. The pest or weed control at 140 g/ha is, setting by setting: under setting [7], 0 to 29%; under setting [8], 0 to 29%; under setting [9], 95 to 100%; under setting [10], 0 to 29%; under setting [11], 0 to 29%; under setting [12], 0 to 29%. In addition, the pest or weed control at 140 g/ha lay in the range of 60 to 74% under setting [13] and 0 to 29% under setting [14].
Turning to `CC(F)(F)c1ccc(-c2ccc(Cl)c(C(=O)O)n2)c(Cl)c1` [F111, 3-Chloro-6-(2-chloro-4-(1,1-difluoroethyl)phenyl) picolinic acid], the pest or weed control at 140 g/ha lay in the range of 60 to 74% under setting [1]; 95 to 100% under setting [2]; 60 to 74% under setting [3]; 95 to 100% under setting [4]; 95 to 100% under setting [5]; 0 to 29% under setting [6]. Moreover, the pest or weed control at 140 g/ha is, setting by setting: under setting [7], 85 to 94%; under setting [8], 95 to 100%; under setting [9], 95 to 100%; under setting [10], 95 to 100%; under setting [11], 0 to 29%; under setting [12], 75 to 84%. The pest or weed control at 140 g/ha reads like this: under setting [13], 85 to 94%; under setting [14], 75 to 84%.
On to `COC(=O)c1nc(-c2ccc(C(C)(F)F)cc2Cl)ccc1Cl` [F112, Methyl 3-chloro-6-(2-chloro-4-(1,1-difluoroethyl)phenyl) picolinate], for which the pest or weed control at 140 g/ha was in the range of 60 to 74% under setting [1]; 95 to 100% under setting [2]; 95 to 100% under setting [3]; 95 to 100% under setting [4]; 95 to 100% under setting [5]; 45 to 59% under setting [6]. The pest or weed control at 140 g/ha runs as follows: under setting [7], 85 to 94%; under setting [8], 75 to 84%; under setting [9], 95 to 100%; under setting [10], 95 to 100%; under setting [11], 0 to 29%; under setting [12], 60 to 74%. The pest or weed control at 140 g/ha under setting [13] lay in the range of 95 to 100% and the pest or weed control at 140 g/ha under setting [14] lay within 60 to 74%.
With `COC(=O)c1nc(-c2ccc(C(F)(F)F)cc2Cl)ccc1F` [F113, methyl 6-(2-chloro-4-(trifluoromethyl)phenyl)-3-fluoropicolinate], the pest or weed control at 140 g/ha under setting [1] was 0 to 29%; the pest or weed control at 140 g/ha under setting [2] lay within 95 to 100%; the pest or weed control at 140 g/ha under setting [3] was in the range of 45 to 59%; the pest or weed control at 140 g/ha under setting [4] lay in the range of 95 to 100%; the pest or weed control at 140 g/ha under setting [5] was in the range of 85 to 94%; the pest or weed control at 140 g/ha under setting [6] is 0 to 29%. Further, the pest or weed control at 140 g/ha reads like this: under setting [7], 85 to 94%; under setting [8], 75 to 84%; under setting [9], 95 to 100%; under setting [10], 60 to 74%; under setting [11], 30 to 44%; under setting [12], 75 to 84%. Further, the pest or weed control at 140 g/ha fell in the range of 85 to 94% under setting [13], 0 to 29% under setting [15] and 0 to 29% under setting [14].
As to `COC(=O)c1nc(-c2ccc(C(F)(F)F)nc2)ccc1Cl` [F114, Methyl 5-chloro-6′-(trifluoromethyl)-[2,3′-bipyridine]-6-carboxylate], the pest or weed control at 140 g/ha runs as follows: under setting [1], 0 to 29%; under setting [2], 0 to 29%; under setting [3], 0 to 29%; under setting [4], 0 to 29%; under setting [5], 0 to 29%; under setting [6], 0 to 29%. The pest or weed control at 140 g/ha runs as follows: under setting [7], 0 to 29%; under setting [8], 0 to 29%; under setting [9], 30 to 44%; under setting [10], 0 to 29%; under setting [11], 0 to 29%; under setting [12], 0 to 29%. The pest or weed control at 140 g/ha by setting is: under setting [13], 0 to 29%; under setting [15], 0 to 29%; under setting [14], 0 to 29%.
Take `COC(=O)c1nc(-c2ccc(Cl)c(OC)c2F)ncc1Cl` [F115, methyl 5-chloro-2-(4-chloro-2-fluoro-3-methoxyphenyl)pyrimidine-4-carboxylate]: the pest or weed control at 140 g/ha lay within 0 to 29% under setting [1]; 0 to 29% under setting [2]; 0 to 29% under setting [3]; 0 to 29% under setting [4]; 60 to 74% under setting [5]; 0 to 29% under setting [6]. In addition, the pest or weed control at 140 g/ha runs as follows: under setting [7], 0 to 29%; under setting [8], 0 to 29%; under setting [9], 30 to 44%; under setting [11], 0 to 29%; under setting [12], 0 to 29%; under setting [13], 0 to 29%. Further, the pest or weed control at 140 g/ha lay within 0 to 29% under setting [15] and 0 to 29% under setting [14].
As for `O=C(OCc1ccc(Cl)cc1Cl)c1nc(-c2ccc(C(F)(F)F)cc2Cl)ccc1Cl` [F116, 2,4-dichlorobenzyl 3-chloro-6-(2-chloro-4-(trifluoromethyl)phenyl)picolinate], the pest or weed control at 140 g/ha was 30 to 44% under setting [1]; 95 to 100% under setting [2]; 45 to 59% under setting [3]; 85 to 94% under setting [4]; 85 to 94% under setting [5]; 0 to 29% under setting [6]. For the same compound, the pest or weed control at 140 g/ha by setting is: under setting [7], 85 to 94%; under setting [8], 75 to 84%; under setting [9], 85 to 94%; under setting [10], 75 to 84%; under setting [11], 0 to 29%; under setting [12], 60 to 74%. Besides, the pest or weed control at 140 g/ha under setting [13] is 85 to 94%, the pest or weed control at 140 g/ha under setting [15] is 0 to 29% and the pest or weed control at 140 g/ha under setting [14] was 60 to 74%.
With `O=C(OCc1cccc(C(F)(F)F)c1)c1nc(-c2ccc(C(F)(F)F)cc2Cl)ccc1Cl` [F117, 3-(Trifluoromethyl) benzyl 3-chloro-6-(2-chloro-4-(trifluoromethyl)phenyl)picolinate], the pest or weed control at 140 g/ha is 45 to 59% under setting [1]; 95 to 100% under setting [2]; 60 to 74% under setting [3]; 95 to 100% under setting [4]; 85 to 94% under setting [5]; 0 to 29% under setting [6]. Besides, the pest or weed control at 140 g/ha reads like this: under setting [7], 95 to 100%; under setting [8], 85 to 94%; under setting [9], 95 to 100%; under setting [10], 95 to 100%; under setting [11], 0 to 29%; under setting [12], 95 to 100%. The pest or weed control at 140 g/ha fell in the range of 95 to 100% under setting [13], 0 to 29% under setting [15] and 85 to 94% under setting [14].
